Results reported in ChEMBL document CHEMBL1133477, “Discovery of novel p-arylthio cinnamides as antagonists of leukocyte function-associated antigen-1/intracellular adhesion molecule-1 interaction. 1. Identification of an additional binding pocket based on an anilino diaryl sulfide lead” (J Med Chem, 2000).
pIC50: −log10 of the molar value.

target: T1, Intercellular adhesion molecule (ICAM-1), Integrin alpha-L/beta-2 (Homo sapiens, UniProt P05107+P20701); assay: Ability to block the interaction between integrin LFA-1 and its adhesion partner ICAM-1 in a time-resolved fluorescent LFA-1/ICAM-1 biochemical interaction assay; type: protein-complex assay
T1 sequence (P20701 whole entry): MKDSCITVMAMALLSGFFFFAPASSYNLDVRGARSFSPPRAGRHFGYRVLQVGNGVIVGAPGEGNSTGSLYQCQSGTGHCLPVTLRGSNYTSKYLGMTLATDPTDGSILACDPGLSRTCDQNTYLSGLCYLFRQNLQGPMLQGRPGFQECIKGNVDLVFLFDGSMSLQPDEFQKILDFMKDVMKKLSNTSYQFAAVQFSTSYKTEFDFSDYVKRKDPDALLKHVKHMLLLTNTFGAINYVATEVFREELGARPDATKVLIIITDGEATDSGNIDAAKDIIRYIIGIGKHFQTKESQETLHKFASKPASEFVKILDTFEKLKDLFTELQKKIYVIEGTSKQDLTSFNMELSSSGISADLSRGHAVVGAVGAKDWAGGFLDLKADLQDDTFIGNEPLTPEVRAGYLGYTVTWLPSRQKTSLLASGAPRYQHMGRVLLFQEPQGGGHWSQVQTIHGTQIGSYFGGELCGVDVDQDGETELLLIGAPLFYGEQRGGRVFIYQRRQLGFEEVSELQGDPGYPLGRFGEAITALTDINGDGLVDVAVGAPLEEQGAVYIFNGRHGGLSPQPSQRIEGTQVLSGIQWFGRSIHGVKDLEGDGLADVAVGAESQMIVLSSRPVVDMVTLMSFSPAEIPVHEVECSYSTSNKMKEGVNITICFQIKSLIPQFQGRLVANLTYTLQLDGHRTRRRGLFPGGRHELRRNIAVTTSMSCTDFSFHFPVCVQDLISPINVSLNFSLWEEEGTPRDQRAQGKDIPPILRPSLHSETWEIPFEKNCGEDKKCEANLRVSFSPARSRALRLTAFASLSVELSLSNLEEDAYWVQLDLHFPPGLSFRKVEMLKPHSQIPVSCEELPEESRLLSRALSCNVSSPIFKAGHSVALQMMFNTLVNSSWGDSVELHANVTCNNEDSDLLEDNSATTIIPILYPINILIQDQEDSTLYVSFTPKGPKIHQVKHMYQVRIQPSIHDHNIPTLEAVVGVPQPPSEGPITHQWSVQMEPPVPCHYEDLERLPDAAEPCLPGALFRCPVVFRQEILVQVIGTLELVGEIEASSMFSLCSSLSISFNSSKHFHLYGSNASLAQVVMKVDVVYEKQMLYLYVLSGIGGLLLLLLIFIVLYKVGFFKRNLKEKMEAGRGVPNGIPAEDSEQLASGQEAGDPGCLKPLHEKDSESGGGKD
T1 sequence (P05362 whole entry, further chain): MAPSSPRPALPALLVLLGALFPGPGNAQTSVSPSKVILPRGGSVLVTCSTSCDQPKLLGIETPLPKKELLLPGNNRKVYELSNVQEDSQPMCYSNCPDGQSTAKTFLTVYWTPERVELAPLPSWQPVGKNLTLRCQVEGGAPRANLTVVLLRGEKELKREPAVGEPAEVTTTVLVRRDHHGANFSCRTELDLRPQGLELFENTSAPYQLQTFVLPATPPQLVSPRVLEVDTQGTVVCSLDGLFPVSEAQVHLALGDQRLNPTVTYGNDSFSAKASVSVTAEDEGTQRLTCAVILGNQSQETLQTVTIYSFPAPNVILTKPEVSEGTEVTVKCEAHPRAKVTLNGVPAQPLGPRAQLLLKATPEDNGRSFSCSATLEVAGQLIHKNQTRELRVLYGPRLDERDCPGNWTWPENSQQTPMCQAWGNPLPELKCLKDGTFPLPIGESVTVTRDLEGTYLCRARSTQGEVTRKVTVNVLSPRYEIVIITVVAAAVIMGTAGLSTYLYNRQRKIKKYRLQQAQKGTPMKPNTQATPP
T1 sequence (P05107 whole entry): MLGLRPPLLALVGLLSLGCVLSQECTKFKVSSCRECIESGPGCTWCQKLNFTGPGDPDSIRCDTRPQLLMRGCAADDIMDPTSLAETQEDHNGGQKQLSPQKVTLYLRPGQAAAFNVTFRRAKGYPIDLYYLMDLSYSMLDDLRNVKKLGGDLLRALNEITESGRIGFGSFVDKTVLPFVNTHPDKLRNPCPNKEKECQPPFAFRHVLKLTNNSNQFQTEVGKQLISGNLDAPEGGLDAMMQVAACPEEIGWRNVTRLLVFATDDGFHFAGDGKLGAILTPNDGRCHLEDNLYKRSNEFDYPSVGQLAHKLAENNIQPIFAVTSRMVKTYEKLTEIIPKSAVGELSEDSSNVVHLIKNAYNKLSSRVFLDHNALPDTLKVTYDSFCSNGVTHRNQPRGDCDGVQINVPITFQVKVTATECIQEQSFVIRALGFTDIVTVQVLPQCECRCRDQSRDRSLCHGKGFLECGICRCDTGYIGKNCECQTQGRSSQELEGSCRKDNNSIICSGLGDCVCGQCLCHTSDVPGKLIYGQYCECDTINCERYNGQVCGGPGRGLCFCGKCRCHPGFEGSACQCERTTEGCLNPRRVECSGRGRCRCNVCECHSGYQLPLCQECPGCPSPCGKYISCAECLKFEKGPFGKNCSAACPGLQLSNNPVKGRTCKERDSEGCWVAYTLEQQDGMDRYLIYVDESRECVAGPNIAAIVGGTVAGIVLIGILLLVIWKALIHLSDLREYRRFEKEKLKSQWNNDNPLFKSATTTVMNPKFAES

SMILES	pIC50
O=C(/C=C/c1cccc(Sc2ccc(Cl)cc2Cl)c1)NCCCn1ccnc1	5.15
CC(=O)N1CCN(C(=O)/C=C/c2ccc(Sc3ccc(Cl)cc3Cl)c(/C=C/C(=O)N3CCOCC3)c2)CC1	4.74
Nc1cc(/C=C/C(=O)NCCCN2CCCC2=O)ccc1Sc1ccc(Cl)cc1Cl	4.72
CC(=O)N1CCN(C(=O)/C=C/c2ccc(Sc3ccccc3C)c([N+](=O)[O-])c2)CC1	6.92
O=C(/C=C/c1ccccc1Sc1ccc(Cl)cc1Cl)NCCCN1CCCC1=O	5.80
O=C(/C=C/c1ccccc1Sc1ccc(Cl)cc1Cl)NCCCCCCO	4.00
CN(CCC(=O)Nc1ccccc1Sc1ccc(Cl)cc1Cl)Cc1ccccc1	< 4.00
CC(=O)N1CCN(C(=O)/C=C/c2ccc(Sc3ccccc3C=O)c([N+](=O)[O-])c2)CC1	7.22
CC(=O)N1CCN(C(=O)/C=C/c2ccc(Sc3ccccc3Cl)c([N+](=O)[O-])c2)CC1	6.96
O=C(/C=C/c1ccccc1Sc1ccc(Cl)cc1Cl)N(Cc1ccccc1)Cc1ccc(Oc2ccccc2)cc1	< 4.00
CCc1ccccc1Sc1ccc(/C=C/C(=O)N2CCN(C(C)=O)CC2)cc1[N+](=O)[O-]	7.19
O=C(/C=C/c1ccccc1Sc1ccc(Cl)cc1Cl)NCC1CCCO1 (centres undefined)	5.68
O=C(/C=C/c1ccccc1Sc1ccc(Cl)cc1Cl)NCCc1ccccc1	< 4.00
O=C(/C=C/c1ccccc1Sc1ccc(Cl)cc1Cl)N(CCO)CCO	5.64
O=C(/C=C/c1cccc(Sc2ccc(Cl)cc2Cl)c1)N(CCO)CCO	4.82
O=C(CCN1CCCC1)Nc1ccccc1Sc1ccc(Cl)cc1Cl	< 5.00
Cc1cccc2sc(NC(=O)/C=C/c3ccccc3Sc3ccc(Cl)cc3Cl)nc12	< 4.00
O=C(/C=C/c1cccc(Sc2ccc(Cl)cc2Cl)c1)NCCCCCCO	5.01
O=C(/C=C/c1ccc(Sc2ccccc2CN2CCOCC2)c(Cl)c1)N1CCOCC1	6.82
CC(=O)N1CCN(C(=O)/C=C/c2ccc(Sc3ccc(Cl)cc3Cl)c(Cl)c2)CC1	6.85
O=C(/C=C/c1ccc(Sc2ccc(Cl)cc2Cl)c(Cl)c1)N1CCN(c2ccccn2)CC1	6.12

SMILES	pIC50
O=C(/C=C/c1ccc(Sc2ccc(Cl)cc2Cl)c([N+](=O)[O-])c1)NCCCN1CCCC1=O	6.77
CN1CCN(CCC(=O)Nc2ccccc2Sc2ccc(Cl)cc2Cl)CC1	4.48
O=C(O)c1cc(/C=C/C(=O)N2CCOCC2)ccc1Sc1ccc(Cl)cc1Cl	< 4.70
O=C(/C=C/c1ccc(Sc2ccc(Cl)cc2Cl)c(Cl)c1)N(CCO)CCO	6.15
O=C(/C=C/c1cccc(Sc2ccc(Cl)cc2Cl)c1)N1CCOCC1	4.78
NC(=O)c1cc(/C=C/C(=O)N2CCOCC2)ccc1Sc1ccc(Cl)cc1Cl	< 4.70
O=C(/C=C/c1ccc(Sc2ccc(Cl)cc2Cl)c(/C=C/C(=O)N2CCOCC2)c1)N1CCOCC1	< 4.70
O=C(/C=C/c1ccc(Sc2ccc(Cl)cc2Cl)c(Cl)c1)NCCCn1ccnc1	5.85
O=C(/C=C/c1cccc(Sc2ccc(Cl)cc2Cl)c1)NCCCN1CCCC1=O	5.35
O=C(O)/C=C/c1ccc(Sc2ccc(Cl)cc2Cl)c(Cl)c1	5.59
CN(C)CCNCc1ccccc1Sc1ccc(Cl)cc1Cl	5.25
O=C(/C=C/c1ccc(Sc2ccc(Cl)cc2Cl)c(Cl)c1)NCCO	6.04
O=C(CCN1CCOCC1)Nc1ccccc1Sc1ccc(Cl)cc1Cl	4.92
O=C(/C=C/c1ccc(Sc2ccccc2NCCCN2CCOCC2)c(Cl)c1)N1CCOCC1	6.74
CC(=O)N1CCN(C(=O)/C=C/c2ccc(Sc3ccc(Cl)cc3Cl)c([N+](=O)[O-])c2)CC1	7.05
Clc1ccc(Sc2ccccc2NCCCN2CCOCC2)c(Cl)c1	6.85
CC(=O)N1CCN(C(=O)/C=C/c2ccc(Sc3ccccc3N)c([N+](=O)[O-])c2)CC1	6.21
CCCN(CCC)CCC(=O)Nc1ccccc1Sc1ccc(Cl)cc1Cl	4.21
CC(=O)N1CCN(C(=O)/C=C/c2ccc(Sc3ccccc3C(C)(C)C)c([N+](=O)[O-])c2)CC1	6.28
CC(=O)N1CCN(C(=O)/C=C/c2ccc(Sc3ccccc3N(C)C)c([N+](=O)[O-])c2)CC1	6.51
O=C(/C=C/c1ccc(Sc2ccccc2CN2CCN(Cc3ccc4c(c3)OCO4)CC2)c(Cl)c1)N1CCOCC1	7.00

SMILES	pIC50
CC(=O)N1CCN(C(=O)/C=C/c2ccc(Sc3cccc(Cl)c3Cl)c([N+](=O)[O-])c2)CC1	7.00
CCOC(=O)CN(C)Cc1ccccc1Sc1ccc(/C=C/C(=O)N2CCOCC2)cc1Cl	6.59
O=C(/C=C/c1ccc(Sc2ccc(Cl)cc2Cl)c(Cl)c1)NCCCCCCO	6.23
O=C(/C=C/c1ccccc1Sc1ccc(Cl)cc1Cl)NCCCn1ccnc1	6.02
O=C(/C=C/c1ccccc1Sc1ccc(Cl)cc1Cl)NCC(O)CO (centres undefined)	5.42
O=C(/C=C/c1ccc(Sc2ccc(Cl)cc2Cl)c(Cl)c1)N1CCOCC1	6.34
O=C(/C=C/c1ccc(Sc2ccc(Cl)cc2Cl)c(Br)c1)NCCCN1CCCC1=O	6.19
CC(=O)N1CCN(C(=O)/C=C/c2ccc(Sc3ccccc3C(N)=O)c([N+](=O)[O-])c2)CC1	4.79
O=C(/C=C/c1ccccc1Sc1ccc(Cl)cc1Cl)NCCO	5.48
O=C(/C=C/c1ccc(Sc2ccc(Cl)cc2Cl)c(Cl)c1)NCCCN1CCCC1=O	6.26
O=C(O)/C=C/c1ccccc1Sc1ccc(Cl)cc1Cl	5.59
O=C(/C=C/c1ccccc1Sc1ccc(Cl)cc1Cl)N1CCOCC1	5.92
O=C(/C=C/c1ccc(Sc2ccc(Cl)cc2Cl)c(NCCCN2CCOCC2)c1)NCCCN1CCCC1=O	4.81
CN1CCN(C(=O)/C=C/c2ccc(Sc3ccc(Cl)cc3Cl)c(Cl)c2)CC1	5.96
CN(C)CCC(=O)Nc1ccccc1Sc1ccc(Cl)cc1Cl	4.09
O=CN1CCN(Cc2ccccc2Sc2ccc(/C=C/C(=O)N3CCOCC3)cc2Cl)CC1	6.38
O=C(O)CNC(=O)/C=C/c1ccccc1Sc1ccc(Cl)cc1Cl	5.41
O=C(/C=C/c1ccc(Sc2ccccc2/C=C/C(=O)N2CCOCC2)c(Cl)c1)N1CCOCC1	6.74
O=C(/C=C/c1ccc(Sc2ccc(Cl)cc2Cl)c(/C=C/C(=O)N2CCOCC2)c1)NCCCN1CCCC1=O	< 4.70
O=Cc1cc(/C=C/C(=O)N2CCOCC2)ccc1Sc1ccc(Cl)cc1Cl	6.21

target: T1, Intercellular adhesion molecule (ICAM-1), Integrin alpha-L/beta-2; assay: Inhibition against binding of LFA-1 to ICAM-1; type: protein-complex assay

SMILES	pIC50
Nc1ccc(Sc2ccc(Cl)cc2Cl)c(Cl)c1	5.77
CN(C)CCN1c2ccccc2Sc2ccc(Cl)cc21 [CHOLRPHENETHAZINE]	4.55
